Results reported in US20190083420A1, “METHODS OF USING (2R, 6R)-HYDROXYN[…] (2S, 6S)-HYDROXYN[…] THE TREATMENT OF DEPRESSION, ANXIETY, ANHEDONIA, FATIGUE, SUICIDAL IDEATION, AND POST TRAUMATIC STRESS DISORDERS” (The Uinited States of America, as represented by the …, priority 2016, published 2019).
Entries after “also recorded” stand apart in the source; their conditions may differ.

Assays:
[1] = Tissue distribution of ketamine and metabolites (plasma and brain levels)
Description: Mice were euthanized by a 30-sec exposure to 3% isoflurane and decapitated at 10, 30, 60, 240 or 480 minutes following drug administration. Trunk blood was collected in EDTA-containing tubes and centrifuged at 8000 rpm for 6 min (4° C.). Plasma was collected and stored at −80° C. until analysis. Whole brains were simultaneously collected, rinsed with phosphate-buffered saline, immediately frozen in dry ice and stored at −80° C. until analysis.
The concentrations of ketamine and its metabolites in plasma and brain tissue were determined by achiral liquid chromatography-tandem mass spectrometry. For plasma samples, the calibration standards for (R,S)-ketamine, (R,S)-norketamine, (2R,6R;2S,6S)-HNK and (R,S)-DHNK ranged from 10,000 ng/ml to 19 ng/ml. The quantification of (R,S)-ketamine, (R,S)-norketamine, (R,S)-DHNK, and the HNK stereoisomers was accomplished by calculating area ratios using D4-ketamine (10 μl of 10 μg/ml solution) as the internal standard. Whole brains were suspended in 990 μl of water:methanol (3:2, v/v), D4-ketamine (10 μl of 10 μg/ml) added and the resulting mixture homogenized on ice with a polytron homogenizer and centrifuged at 21,000×g for 30 min. The supernatant was collected and processed using 1 ml Oasis HLB solid phase extraction cartridges (Waters Corp., Waltham, Mass.). The cartridges were preconditioned with 1 ml of methanol, followed by 1 ml of water and then 1 ml ammonium acetate [10 mM, pH 9.5]. The supernatants were added to the cartridges, followed by 1 ml of water and the compounds were eluted with 1 ml of methanol. The eluent was transferred to an autosampler vial for analysis. QC standards for the analysis of (R,S)-ketamine, (R,S)-norketamine, (R,S)-DHNK and (2R,6R;2S,6S)-HNK ranged from 10,000 ng/ml to 19 ng/ml, and quantification was accomplished using D4-(R,S)-ketamine as the internal standard. QC standards were prepared daily by adding 10 μl of the appropriate standard solution and 10 μl of internal standard solution (100 ng/ml) to methanol.

male CD-1 mice [2] = assay: Forced-swim test (FST); format: in vivo; conditions: for antidepressant effect in the FST (immobility time): i.p.
Description: (§1) Male CD-1 mice (8-10 weeks old, Charles River Laboratories, Mass., USA) were housed in groups of four-five per cage with a constant 12-hour light/dark cycle (lights on/off at 07:00/19:00). Food and water were available ad libitum. Mice acclimatized to the new environment for seven days prior to the start of the experiments. For the whole-cell NMDA current electrophysiological recordings, male Sprague-Dawley rats (housed three per cage; Charles River, Wilmington, Mass.) were used. EPSC recording were done from rats at postnatal day 24-25. All experimental procedures were approved by the University of Maryland, Baltimore Animal Care and Use Committee and were conducted in full accordance with the National Institutes of Health Guide for the Care and Use of Laboratory Animals.
Mice were tested in the FST 1 hour and/or 24 hours post-injection. During the FST, mice were subjected to a 6-min swim session in clear Plexiglass cylinders (30 cm height×20 cm diameter) filled with 15 cm of water (23±1° C.). The FST was performed in normal light conditions (800 Lux). Sessions were recorded using a digital video-camera. Immobility time, defined as passive floating with no additional activity other than that necessary to keep the animal's head above water, was scored for the last 4 min of the 6-min test by a trained observer blind to the treatment.
All drugs were dissolved in 0.9% saline, and administered intraperitoneally (i.p.) in a volume of 7.5 ml/kg of body mass. Corticosterone (4-pregnen-11β, 21-diol-3, 20-dione 21-hemisuccinate; Steraloids, Newport, R.I., USA) was dissolved in tap water. For the electrophysiology recordings, test drugs were diluted in artificial cerebrospinal fluid (AC SF).

male CD-1 mice [3] = assay: Learned helplessness (LH); format: in vivo; conditions: single injection, test 24 hours after administration
Description: as §1
The LH paradigm consisted of three different phases, i.e., inescapable shock training, LH screening, and the LH test. For the inescapable shock portion of the test (Day 1), the animals were placed in one side of two-chambered shuttle boxes (34 cm height×37 cm width×18 cm depth; Coulbourn Instruments, PA, USA), with the door between the chambers closed. Following a five-min adaptation period, 120 inescapable foot-shocks (0.45 mA, 15 sec duration, randomized average inter-shock interval of 45 sec) were delivered through the grid floor. During the screening session (Day 2), the mice were placed in one of the two chambers of the apparatus for 5 min. A shock (0.45 mA) was then delivered, and the door between the two chambers was raised simultaneously. Crossing over into the second chamber terminated the shock. […] A total of 30 screening trials of escapable shocks were presented to each mouse with an average of 30 sec delay between each trial. Mice that developed helplessness behavior (>5 escape failures during the last 10 screening shocks) were administered with the respective drug 24 hours following screening (Day 3). During the LH test phase (Day 4), the animals were placed in the shuttle boxes and, after a 5-min adaptation period, a 0.45 mA shock was delivered concomitantly with door opening for the first five trials, followed by a 2-sec delay for the next 40 trials. Crossing over to the second chamber terminated the shock. […] A total of 45 trials of escapable shock were presented to each mouse with 30 sec inter-trial intervals. The number of escape failures was recorded for each mouse.

mice [4] = assay: Open field test (locomotor activity); format: in vivo; conditions: 1 hour after i.p. drug, Hydrochloride
Description: Mice were placed into individual open-field arenas (50 cm length×50 cm width×38 cm height; San Diego Instruments, San Diego, Calif., USA) for a 60-min habituation period. Mice were then injected with the respective drug and assessed for locomotor activity for another 60 min. Distance travelled was analyzed using TopScan v2.0 (CleverSys, Inc, Reston, Va., USA).

Male C57BL/6J mice = assay: Chronic social defeat stress and social interaction/avoidance test; format: in vivo; conditions: single i.p. injection, re-test 24 hours following treatment
Description: Male C57BL/6J mice underwent a 10-day chronic social defeat stress paradigm. Briefly, experimental mice were introduced to the home cage (43 cm length×11 cm width×20 cm height) of a resident aggressive retired CD-1 breeder, prescreened for aggressive behaviors, for 10 min. Following this physical attack phase, mice were transferred and housed in the opposite side of the resident's cage divided by a Plexiglas perforated divider, in order to maintain continuous sensory contact. This process was repeated for 10 days. Experimental mice were introduced to a novel aggressive CD-1 mouse each day. On day 11, test mice were screened for susceptibility in a social interaction/avoidance choice test. The social interaction apparatus consisted of a rectangular three-chambered box (mouse conditioned-place preference chamber; Stoelting Co., Wood Dale, Ill., USA), see FIG. 7b) comprised of two equal sized end-chambers and a smaller central chamber. The social interaction/avoidance choice test consisted of two 5-min phases. During the habituation phase, mice explored the empty apparatus. During the test phase, two small wire cages (Galaxy Cup, Spectrum Diversified Designs, Inc., Streetsboro, Ohio, USA), one containing a “stranger” CD-1 mouse and the other one empty, were placed in the far corners of each chamber. The time spent interacting (nose within close proximity of the cage) with the “stranger” mouse versus the empty cage was analysed using TopScan video tracking software (CleverSys, Reston, Va.). Locomotor activity (total distance moved over 5 min) and number of total crosses into and out of the central chamber were also measured. The social interaction ratio was calculated by dividing the time spent interacting with the “stranger” by the time spent with the empty cage. Mice having a social interaction ratio higher than 1.0 were considered resilient and mice with a social interaction ratio lower than 1.0 were considered susceptible. On day 13 resilient and susceptible mice received an i.p. injection of either saline, (R,S)-KET (20 mg/kg; chosen based upon dose previously effective in C57BL/6J mice^31), MK-801 (0.1 mg/kg) or (2R,6R)-HNK (20 mg/kg). Mice were re-tested for social interaction/avoidance on […] (24 hours following treatment).

mice [5] = assay: Quantitative EEG, cortical oscillation power; format: in vivo; conditions: NBQX before (2R,6R)-HNK
Description: EEG experiments were performed according to Raver et al., (Neuropsychopharmacology, 38, 2338-2347 (2013)) with minor modifications. Mice were anesthetized with isoflurane and kept under anesthesia throughout the surgery. An F20-EET radio-telemetric transmitter (Data Sciences International, Minneapolis, Minn.) was implanted subcutaneously and its leads implanted over the dura above the frontal cortex (1.7 mm anterior to bregma) and the cerebellum (6.4 mm posterior to bregma). Animals recovered from surgery for 7 days before recordings.
Mice were singly housed and acclimated to the behavioral room for 24 hours prior to EEG recordings. EEGs were recorded using the Dataquest A.R.T. acquisition system (Data Sciences International) with frontal EEG recordings referenced to the cerebellum. Baseline EEG (10 min) recordings were followed by an i.p. injection of saline, ketamine (10 mg/kg) or (2R,6R)-HNK (10 mg/kg) and 40 min of post-injection recordings.
ECoGs were analyzed using custom-written MATLAB scripts (Version 2012a, Mathworks, Mass.) and the mtspecgramc routine in the Chronux Toolbox (http://chronux.org; Mitra and Bokil, 2008). Oscillation power in each bandwidth (δ=1-3 Hz; θ=4-7 Hz; α=8-12 Hz; β=13-29 Hz; γ=30-80 Hz) was computed in 10 min bins from spectrograms for each animal.

mice [6] = assay: Drug discrimination in ketamine-trained mice; format: in vivo; conditions: for ketamine-associated discriminative stimulus: mice trained to discriminate ketamine (10 mg/kg) from saline
Description: Mice were food restricted until they reached 85% of their initial body weight and were maintained at 85% throughout the duration of the experiment Animals were trained to lever press for food (20 mg sucrose pellets; TestDiet, St. Luis, Mo., USA) in standard two lever-operant conditioning chambers (Coulbourn Instruments, Whitehall, Pa., USA), under a fixed-ratio 5 of reinforcement (FR5) in daily 30-min sessions. When stable responding was succeeded over 3 consecutive sessions (average of 40 training sessions), mice were trained to discriminate ketamine (10 mg/kg) from saline (7.5 ml/kg) under a double alternation schedule (e.g., ketamine, ketamine, saline, saline). The subjects received either ketamine (10 mg/kg; i.p.) or saline (7.5 ml/kg) 15 minutes prior to the start of the 30-minute session. […] Drug discrimination test sessions were conducted when mice reached the following criteria: (1) first FR5 completed on the correct lever, and (2)≥85% correct lever responding over the entire session. During the test sessions mice were administered with saline (7.5 ml/kg), ketamine (10 mg/kg), phencyclidine (PCP; 3 mg/kg) or (2R,6R)-HNK (10 and 50 mg/kg). […] Recording of responses and pellet delivery were controlled and calculated by an automated computer system (Graphic State v3.1; Coulbourn Instruments, Whitehall, Pa., USA).

[7] = 24 hours post-injection (sustained)

## NC1(c2ccccc2Cl)CCCCC1=O (racemic) [norketamine, (R,S)-norketamine]
[1]; brain
  brain levels following ketamine administration, female mice compared to males: equivalent levels

## Cl.[2H]C1([2H])CCCC(NC)(c2ccccc2Cl)C1=O (centres unmarked) [6,6-dideuteroketamine, 2-(2-Chlorophenyl)-6,6-Dideutero-2-(Methylamino)Cyclohexanone Hydrochloride]
Male CD-1 mice [2]; [7]
  antidepressant effect in the FST (immobility time): did not induce antidepressant actions
Male CD-1 mice [3]
  antidepressant-like effect in learned helplessness (escape failures): did not induce antidepressant actions
Mice [4]
  locomotor activity in the open-field test: did not change or NMDA-mediated hyperlocomotion
Mice [4]; listed as (R,S)-6,6-dideuteroketamine
  locomotor activity in the open-field test: equally potent in inducing a hyper-locomotor response
[1]; 6,6-dideuteroketamine compared to ketamine
  levels of ketamine in the brain: without changes to the levels of ketamine in the brain

## C[C@]12N[C@H](Cc3ccccc31)c1ccccc12 [MK-801]
Male CD-1 mice [2]; 1 hour post-injection (acute)
  antidepressant effect in the FST (immobility time): antidepressant responses of both ketamine and MK-801 observed acutely
Male CD-1 mice [2]; [7]
  antidepressant effect in the FST (immobility time): does not exert sustained (24-hour) antidepressant-like effects
Male C57BL/6J mice
  reversal of social interaction deficits / social avoidance induced by chronic social defeat stress: does not exert sustained (24-hour) antidepressant-like effects in the FST, or reverse social interaction deficits

## NS(=O)(=O)c1cccc2c1c([N+](=O)[O-])cc1[nH]c(=O)c(=O)[nH]c12 [NBQX, 2,3-dihydroxy-6-nitro-7-sulfamoyl-benzo[f]quinoxaline-2,3-dione]
Male CD-1 mice [2]; NBQX 10 minutes prior to (R,S)-ketamine or (2R,6R)-HNK, FST 1 hour or 24 hours later
  effect of NBQX pre-treatment on antidepressant-like actions in the FST: prevented their antidepressant-like actions; also recorded: prevented both the 1- and 24-hour antidepressant effects of (2R,6R)-HNK
Male CD-1 mice [2]; NBQX 30 min prior to the 24-hour FST (23.5 hours after ketamine or (2R,6R)-HNK)
  effect of NBQX given before the 24-hour FST on antidepressant effects: prevented the antidepressant actions of both ketamine and (2R,6R)-HNK; also recorded: prevented the antidepressant effects of both (R,S)-KET and (2R,6R)-HNK
Mice [5]
  effect of NBQX pre-treatment on (2R,6R)-HNK-induced increases in gamma oscillations: prevented (2R,6R)-HNK-induced increases in gamma power; also recorded: prevented (2R,6R)-HNK-induced increases of gamma oscillations
  effect of NBQX pre-treatment on locomotor activity and alpha, beta, delta, theta oscillations: did not change

## CNCCCN1c2ccccc2CCc2ccccc21 [desipramine]
Male CD-1 mice [2]; 1- and 24-hours post-injection, times not separated
  antidepressant effect in the FST (immobility time): only decreased immobility time 1 hour post-injection

## c1ccc(C2(N3CCCCC3)CCCCC2)cc1 [phencyclidine, reference compound]
Mice [6]; drug discrimination paradigm
  response rate of overall lever pressing per sec: not changed
Mice [6]
  ketamine-associated discriminative stimulus: did
Mice [6]; listed as PCP
  ketamine-associated discriminative stimulus: produced ketamine-like discriminative properties
